Measurements from publication PMC7155171, “Probing the Open Global Health Chemical Diversity Library for Multistage-Active Starting Points for Next-Generation Antimalarials” (ACS Infectious Diseases, 2020).
Read-outs that look alike come from different tables or passages of the source.

What was measured:
[1] = test system: P. falciparum Dd2 (PfLuc) line expressing firefly luciferase, asexual blood stage; experiment: microbe, parasite or virus in culture; assay type: cell-based, Plasmodium falciparum; conditions: Plasmodium falciparum, DD2, 8-pt dose response, 96hr
[2] = test system: P. falciparum (NF54) stage V gametocytes; experiment: Stage V gametocyte viability assay (MitoTracker Red CMXRos high content imaging); assay type: cell-based, Plasmodium falciparum; conditions: Plasmodium falciparum, NF54, 72 h; for inhibition at 2 µM: read-out: Stg V Gam primary screen: Inhibition % (2uM) (n=2)
[3] = read-out: Stg V Gam dose response IC50 (µM) (n=3), 10-point dose response, n=3, 72 h
[4] = read-out: GAM V IC50, stage V gametocytes, 72 h

| SMILES | IC50 ([1]; read-out: P. falciparum Luciferase ABS 8-pt Reconfirmation Dose Response (96hr): IC50) | Emax ([1]; read-out: P. falciparum Luciferase ABS 8-pt Reconfirmation Dose Response (96hr): Maximum inhibition (%)) | IC50 [2, 3] | inhibition at 2 µM [2] | IC50 [2, 4] |
| --- | --- | --- | --- | --- | --- |
| CN(Cc1ccco1)C[C@H]1OC[C@@H]2CCN(Cc3ccccn3)C[C@@H]21 [DDD01033585, CN(C[C@H]1OC[C@@H]2CCN(CC3=CC=CC=N3)C[C@H]12)CC1=CC=CO1] | 1.65 µM | 91.7% | 3.17 µM | 76% | – |
| O=C(C1CC2(CCNCC2)CN1)N1CCN(c2cccc(Cl)c2Cl)CC1 (centres unmarked) [DDD01243908, ClC1=CC=CC(N2CCN(CC2)C(=O)C2CC3(CN2)CCNCC3)=C1Cl] | – | – | 4.94 µM | 52.8% | – |
| COCC(C)NCc1nc(-c2ccc(C)cc2)c(-c2ccccn2)[nH]1 (centres unmarked) [DDD01244737, COCC(C)NCC1=NC(=C(N1)C1=CC=C(C)C=C1)C1=CC=CC=N1] | – | – | 1.64 µM | 72.4% | 1.64 µM |
| Fc1ccc2[nH]c(C3CCCN3Cc3c[nH]cn3)nc2c1 (centres unmarked) [DDD01245473, FC1=CC=C2N=C(NC2=C1)C1CCCN1CC1=CN=CN1] | – | – | 1.88 µM | 53.9% | – |
| CCSCC(C)NCc1cn2ccccc2n1 (centres unmarked) [DDD01245879, CCSCC(C)NCC1=CN2C=CC=CC2=N1] | – | – | 1.71 µM | 74% | – |
| CC(c1cccs1)N(C)Cc1cnc(-c2ccccn2)nc1 (centres unmarked) [DDD01246628, CC(N(C)CC1=CN=C(N=C1)C1=CC=CC=N1)C1=CC=CS1] | – | – | 0.293 µM | 81.7% | – |
| Cc1ccc2nc(CN(C)Cc3n[nH]c4c3CCCCC4)[nH]c2c1C [DDD01247714, CN(CC1=NC2=CC=C(C)C(C)=C2N1)CC1=C2CCCCCC2=NN1] | – | – | 1.62 µM | 89.8% | – |
| CNc1cc(C)nc(NCc2cc(C)cc3c(C)c(C)[nH]c23)n1 [DDD01248198, CNC1=CC(C)=NC(NCC2=C3NC(C)=C(C)C3=CC(C)=C2)=N1] | – | – | 0.791 µM | 70.7% | 0.79 µM |
| COCc1noc(-c2ccc(N(C)Cc3ncccc3C)nc2)n1 [DDD01248427, COCC1=NOC(=N1)C1=CC=C(N=C1)N(C)CC1=NC=CC=C1C] | – | – | 1.02 µM | 58.1% | – |
| CCSCCNc1nc(-c2ccccn2)nc2c1c(C)nn2C [DDD01253625, CCSCCNC1=C2C(C)=NN(C)C2=NC(=N1)C1=CC=CC=N1] | – | – | 1.89 µM | 58.4% | 1.88 µM |
| Cc1nn(C)c2nc(-c3ccccn3)nc(NCCCOC(C)C)c12 [DDD01254389, CC(C)OCCCNC1=C2C(C)=NN(C)C2=NC(=N1)C1=CC=CC=N1] | – | – | 1.71 µM | 61.4% | 1.71 µM |
| Cc1cc2nc(C(C)C)cc(NCC(c3ccccn3)N(C)C)n2n1 (centres unmarked) [DDD01256956, CC(C)C1=NC2=CC(C)=NN2C(NCC(N(C)C)C2=CC=CC=N2)=C1] | – | – | 0.933 µM | 64.8% | – |
| Cc1cnc2c(S(=O)(=O)NC3CCS(=O)(=O)C3)cccc2c1 (centres unmarked) [DDD01296003, CC1=CN=C2C(C=CC=C2S(=O)(=O)NC2CCS(=O)(=O)C2)=C1] | – | – | 2.28 µM | 76.3% | – |
| COc1cc(CNC(c2ccccc2)c2nccn2C)cc(OC)c1 (centres unmarked) [DDD01296506, COC1=CC(OC)=CC(CNC(C2=NC=CN2C)C2=CC=CC=C2)=C1] | – | – | 0.513 µM | 58.3% | – |
| Cc1cnn(CC2CCCN2Cc2nc(C)c3ccccc3n2)c1 (centres unmarked) [DDD01298810, CC1=CN(CC2CCCN2CC2=NC(C)=C3C=CC=CC3=N2)N=C1] | – | – | 0.296 µM | 51.9% | – |
| Cc1nnc(NCc2ccccc2Cl)c(C#N)c1C [DDD01302395, CC1=NN=C(NCC2=CC=CC=C2Cl)C(C#N)=C1C] | – | – | > 9.58 µM | 68.1% | – |
